# Reference: patent US11142515B2, “Pyrazolyl-ureas as kinase inhibitors” (RESPIVERT LIMITED, priority 2014, dated 2021)
# How the values were obtained:
# p38MAPKγ (MAPK12) = biological target: T1, p38MAPKγ (MAPK12) (Homo sapiens, UniProt P53778); experiment: p38 MAPKγ enzyme inhibition (Z-LYTE FRET); format: biochemical; details: Table 2A; read-out: IC50 Values for Enzyme Inhibition p38 MAPKγ
# T1 construct: purchased Life Technologies
# T1 sequence (P53778 1-367): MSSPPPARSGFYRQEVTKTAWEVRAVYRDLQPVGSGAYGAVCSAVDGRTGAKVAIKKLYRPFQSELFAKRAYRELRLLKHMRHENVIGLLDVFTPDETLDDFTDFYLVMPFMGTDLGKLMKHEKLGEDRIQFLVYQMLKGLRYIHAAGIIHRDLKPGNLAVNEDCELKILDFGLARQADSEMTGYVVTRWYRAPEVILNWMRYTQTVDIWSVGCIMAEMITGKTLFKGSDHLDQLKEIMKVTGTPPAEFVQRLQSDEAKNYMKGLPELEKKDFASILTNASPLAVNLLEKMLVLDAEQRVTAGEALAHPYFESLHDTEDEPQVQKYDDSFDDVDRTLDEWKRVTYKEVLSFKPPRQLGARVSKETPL
# In short: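 Z-LYTE read-out: after 1 h protease development, only non-phosphorylated peptide is cleaved, and the donor/acceptor (coumarin/fluorescein) ratio reports phosphorylation. Beforehand, enzyme and compound (stock concentrations 0.0012–40 μg/mL) were preincubated 2 h at RT, then the kinase reaction ran 1 h at RT with peptide and ATP (8 μM and 400 μM stocks).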
# GSK 3α enzyme isoform = biological target: T2, GSK 3α enzyme isoform (Homo sapiens, UniProt P49840); experiment: GSK 3α enzyme inhibition (Z-LYTE FRET); format: biochemical; details: Table 2A; read-out: IC50 Values for Enzyme Inhibition GSK3α
# T2 construct: purchased Life Technologies
# T2 sequence (P49840 whole entry, canonical isoform): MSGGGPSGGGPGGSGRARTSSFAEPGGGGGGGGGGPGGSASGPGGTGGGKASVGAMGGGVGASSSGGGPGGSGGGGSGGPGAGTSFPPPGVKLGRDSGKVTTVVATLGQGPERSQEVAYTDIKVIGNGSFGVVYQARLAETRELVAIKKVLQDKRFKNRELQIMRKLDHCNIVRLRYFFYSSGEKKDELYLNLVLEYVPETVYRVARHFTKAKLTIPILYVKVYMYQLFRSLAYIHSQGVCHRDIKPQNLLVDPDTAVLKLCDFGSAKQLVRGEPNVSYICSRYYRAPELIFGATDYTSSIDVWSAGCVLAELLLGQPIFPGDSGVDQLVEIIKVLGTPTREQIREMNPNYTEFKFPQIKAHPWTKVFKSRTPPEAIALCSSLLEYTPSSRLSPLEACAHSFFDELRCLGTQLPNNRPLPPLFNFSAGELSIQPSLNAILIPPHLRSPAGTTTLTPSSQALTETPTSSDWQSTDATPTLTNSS
# In short: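 Z-LYTE FRET kinase assay: GSK3α protein (500 ng/mL stock) preincubated with compound (0.0012–40 μg/mL stocks) for 2 h at RT. FRET peptide (8 μM stock) and ATP (40 μM stock) added for 1 h at RT, then protease development for 1 h. Phosphorylation taken from the coumarin/fluorescein emission ratio.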
# [1] = tested on: IL-8 release in d-U937 cells; experiment: LPS-induced IL-8 release in d-U937 cells; format: cell-based; details: Homo sapiens, dU937, LPS 0.1 μg/mL 4 h
# In short: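 U937 cells differentiated with PMA (100–200 ng/mL, 48–72 h). Pre-treated with compound for 2 h, then stimulated with E. coli LPS (0.1 μg/mL) for 4 h. Supernatant TNFα and IL-8 measured by sandwich ELISA; inhibition versus vehicle, REC50 from concentration-response curves.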
# d-U937 cells = experiment: Cell viability: MTT assay in differentiated U937 cells; format: cell-based, human; details: 10 μg/mL
# In short: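 Differentiated U937 cells exposed to compound at a final 10 μg/mL, either 4 h in 5% FCS RPMI1640 or 24 h in 10% FCS RPMI1640. MTT added for 1 h, formazan dissolved in DMSO, absorbance read at 550 nm; % viability loss relative to 0.5% DMSO vehicle, with increases shown as negative values.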
IC50 (p38MAPKγ (MAPK12)) [nM],IC50 (GSK 3α enzyme isoform) [nM],IC50 [1] [nM],SMILES,"MTT Assay Cell viability at time point indicated in d-U937 Cells, 4 h (d-U937 cells)","MTT Assay Cell viability at time point indicated in d-U937 Cells, 24 h (d-U937 cells)"
37,922,90.7,"CC(=O)NCc1cnc(Nc2cc(COc3ccc(NC(=O)Nc4cc(C(C)(C)C)nn4-c4ccc(C)cc4)c4ccccc34)ccn2)cn1 [Example 6, N-((5-((4-(((4-(3-(3-(tert-butyl)-1-(p-tolyl)-1H-pyrazol-5-yl)ureido)naphthalen-1-yl)oxy)methyl)pyridin-2-yl)amino)pyrazin-2-yl)methyl)acetamide]","− (−ve and +ve indicate the value is below and above, respectively, the no significant effect threshold defined as 30% inhibition at 10 μg/mL at the time point indicated)","− (−ve and +ve indicate the value is below and above, respectively, the no significant effect threshold defined as 30% inhibition at 10 μg/mL at the time point indicated)"
29,1490,6.9,Cc1ccc(-n2nc(C(C)(C)C)cc2NC(=O)Nc2ccc(OCc3ccnc(Nc4cnc(CC(N)=O)cn4)c3)c3ccccc23)cc1 [Example 30],"− (−ve and +ve indicate the value is below and above, respectively, the no significant effect threshold defined as 30% inhibition at 10 μg/mL at the time point indicated)","− (−ve and +ve indicate the value is below and above, respectively, the no significant effect threshold defined as 30% inhibition at 10 μg/mL at the time point indicated)"
62,9040,1.3,Cc1ccc(-n2nc(C(C)(C)C)cc2NC(=O)Nc2ccc(OCc3ccnc(Nc4cncc(C)n4)c3)c3ccccc23)cc1 [Example 20],"− (−ve and +ve indicate the value is below and above, respectively, the no significant effect threshold defined as 30% inhibition at 10 μg/mL at the time point indicated)","− (−ve and +ve indicate the value is below and above, respectively, the no significant effect threshold defined as 30% inhibition at 10 μg/mL at the time point indicated)"
104,9170,2.1,COc1cncc(Nc2cc(COc3ccc(NC(=O)Nc4cc(C(C)(C)C)nn4-c4ccc(C)cc4)c4ccccc34)ccn2)n1 [Example 18],"− (−ve and +ve indicate the value is below and above, respectively, the no significant effect threshold defined as 30% inhibition at 10 μg/mL at the time point indicated)","+ (−ve and +ve indicate the value is below and above, respectively, the no significant effect threshold defined as 30% inhibition at 10 μg/mL at the time point indicated)"
376,1030,4,Cc1cc(-n2nc(C(C)(C)C)cc2NC(=O)Nc2ccc(OCc3ccnc(Nc4cncc(C5CC5)n4)c3)c3ccccc23)cs1 [Example 27],"− (−ve and +ve indicate the value is below and above, respectively, the no significant effect threshold defined as 30% inhibition at 10 μg/mL at the time point indicated)","+ (−ve and +ve indicate the value is below and above, respectively, the no significant effect threshold defined as 30% inhibition at 10 μg/mL at the time point indicated)"
74,469,14.6,Cc1ccc(-n2nc(C(C)(C)C)cc2NC(=O)Nc2ccc(OCc3ccnc(Nc4cnc(CO)cn4)c3)c3ccccc23)s1 [Example 26],"− (−ve and +ve indicate the value is below and above, respectively, the no significant effect threshold defined as 30% inhibition at 10 μg/mL at the time point indicated)","+ (−ve and +ve indicate the value is below and above, respectively, the no significant effect threshold defined as 30% inhibition at 10 μg/mL at the time point indicated)"
